Experimental data: US20230150977A1, “PYRIDAZINONE COMPOUNDS FOR THE TREATMENT OF NEUROMUSCULAR DISEASES” (Edgewise Therapeutics, Inc., priority 2020, published 2023)

target: skeletal myofibrils (Rabbit Psoas) myosin ATPase; assay: Skeletal Myofibril ATPase Assay; type: biochemical; details: PK/LDH coupled, absorbance at 340 nm
Procedure: Overview: Myosin ATPase activity was assessed by using a coupled reaction system, in which ADP generated by the myosin ATPase function was coupled to the disappearance of NADH through the pyruvate kinase/lactate dehydrogenase (PK-LDH) system. Myosin ATPase activity produces ADP, which was used as a substrate for PK to produce pyruvate and regenerate ATP. The pyruvate was then used as a substrate by LDH to oxidize NADH to NAD+. The rate of the reaction was monitored through the time-dependent disappearance of NADH using absorbance at 340 nm. Inhibition of ATPase activity by the assayed compounds was indicated by a reduced rate of NADH loss, relative to vehicle-treated controls, over the experimental time window. To assess the selectivity of the assayed compounds for skeletal myofibrils, the compounds were counter-screened in cardiac myofibrils.
Materials: The following stock solutions and reagents were used in the Skeletal Myofibril ATPase Assay:
Stock Solutions of pCa buffer. Combine PIPES, CaCl2, and EGTA solutions with 70 mL of water. Adjust pH to 7.0 and bring final volume to 100 mL.
Buffer A & Buffer B. Buffers were stored on ice until use.
Skeletal Myofibril ATPase Assay Procedure: BSA, ATP, NADH, PEP, and DTT solutions were thawed at room temperature, then transferred to ice. Pellet-frozen myofibrils (approximately twice the required volume) were transferred into a sufficiently large tube and capped. Myofibrils were thawed by rolling in a water bath for approximately 15 min at room temperature and cooled on ice. Buffers A and B were prepared by adjusting volumes as necessary for required number of wells and stored on ice. 0.5 μL of the compounds to be assayed were added into wells of a 384-well plate. Buffers A and B were mixed by inversion immediately prior to use, then 25 μL of each was dispensed using a Multidrop dispenser (Buffer A first, then Buffer B). The absorbance within the wells was measured at 340 nm, using a kinetic protocol in which the wells are read every 1.5-2 min for 1 h. The reaction rate was qualitatively assessed by subtracting the minimum absorbance value from the maximum value for each well, using either the SoftMax Pro plate reader software or a spreadsheet program such as Excel. Using GraphPad Prism 8.0, the data was normalized, with 100% activity defined as the absorbance change in the 1% DMSO vehicle wells and 0% assigned to no change in absorbance over the course of the experiment. The normalized data were fit to a variable-slope four-parameter logistic model, constraining the bottom to be 0 or greater. Compounds of Table 1 to 3 were tested and results of the assay appear in Table 4 herein. A=IC50 is less than or equal to 10 μM; B=IC50 is greater than 10 μM and less than 100 μM; C=IC50 is greater than 100 μM.

Compared with `O=c1ccc(-c2ccc(Cl)cc2)nn1CC1CCOCC1` [Compound 35, 6-(4-chlorophenyl)-2-((tetrahydro-2H-pyran-4-yl)methyl)pyridazin-3(2H)-one], `O=c1ccc(-c2ccc(Cl)cc2)nn1CC1CCCCC1` [Compound 21, 6-(4-chlorophenyl)-2-(cyclohexylmethyl)pyridazin-3(2H)-one] is lower in IC50: over 100 µM for the first, at most 10 µM for the second. The second is the more potent here.

`C=C(C)Cn1nc(-c2ccc(Br)cc2)ccc1=O` [Compound 27, 6-(4-bromophenyl)-2-(2-methylallyl)pyridazin-3(2H)-one] and `N#CCn1nc(-c2ccc(Br)cc2)ccc1=O` [Compound 23, 2-(3-(4-bromophenyl)-6-oxopyridazin-1(6H)-yl)acetonitrile] fall in the same range of IC50: 10 to 100 µM for the first, 10 to 100 µM for the second.

`O=c1ccc(-c2cnc(OCC(F)(F)F)nc2)nn1CCc1ccncc1` [Compound 19, 2-[2-(pyridin-4-yl)ethyl]-6-[2-(2,2,2-trifluoroethoxy)pyrimidin-5-yl]pyridazin-3-one] and `O=c1ccc(-c2cnc(OCC(F)(F)F)nc2)nn1CCc1ccccc1` [Compound 4, 2-phenethyl-6-(2-(2,2,2-trifluoroethoxy)pyrimidin-5-yl)pyridazin-3(2H)-one] cannot be ordered by IC50: at most 10 µM for the first, at most 10 µM for the second.

`O=c1ccc(-c2cnc(OCC(F)(F)F)nc2)nn1CCC12CC(C1)C2` [Compound 7, 2-(2-(bicyclo[1.1.1]pentan-1-yl)ethyl)-6-(2-(2,2,2-trifluoroethoxy)pyrimidin-5-yl)pyridazin-3(2H)-one] and `O=c1ccc(-c2cnc(OCC(F)(F)F)nc2)nn1CCC1CC1` [Compound 5, 2-(2-cyclopropylethyl)-6-(2-(2,2,2-trifluoroethoxy)pyrimidin-5-yl)pyridazin-3(2H)-one] cannot be ordered by IC50: at most 10 µM for the first, at most 10 µM for the second.

`O=c1ccc(-c2ccccc2)nn1CC(O)COCc1ccccc1Cl` (stereo not shown) [Compound 18, 2-(3-((2-chlorobenzyl)oxy)-2-hydroxypropyl)-6-phenylpyridazin-3(2H)-one] and `O=c1ccc(-c2ccc(Cl)cc2)nn1CCc1ccccc1` [Compound 15, 6-(4-chlorophenyl)-2-phenethylpyridazin-3(2H)-one] cannot be ordered by IC50: 10 to 100 µM for the first, at most 10 µM for the second.

`O=c1ccc(-c2ccc(OC(F)F)nc2)nn1CCc1ccc(Cl)cc1` [Compound 12, 2-(4-chlorophenethyl)-6-(6-(difluoromethoxy)pyridin-3-yl)pyridazin-3(2H)-one] and `O=c1ccc(-c2ccc(OC(F)F)cc2)nn1CCc1ccc(Cl)cc1` [Compound 11, 2-(4-chlorophenethyl)-6-(4-(difluoromethoxy)phenyl)pyridazin-3(2H)-one] cannot be ordered by IC50: at most 10 µM for the first, at most 10 µM for the second.

`O=c1ccc(-c2cnc(OCC(F)(F)F)nc2)nn1CCCc1ccccc1` [Compound 2, 2-(3-phenylpropyl)-6-(2-(2,2,2-trifluoroethoxy)pyrimidin-5-yl)pyridazin-3(2H)-one] and `CC(Cn1nc(-c2cnc(OCC(F)(F)F)nc2)ccc1=O)c1ccccc1` (stereo not shown) [Compound 13, 2-(2-phenylpropyl)-6-(2-(2,2,2-trifluoroethoxy)pyrimidin-5-yl)pyridazin-3(2H)-one] cannot be ordered by IC50: at most 10 µM for the first, at most 10 µM for the second.

`O=C(CCn1nc(-c2ccccc2)ccc1=O)NC1CCCCC1` [Compound 36, N-cyclohexyl-3-(6-oxo-3-phenylpyridazin-1(6H)-yl)propanamide] and `CCOc1ccc(-c2ccc(=O)n(CCNC(=O)CC3CCCC3)n2)cc1` [Compound 24, 2-cyclopentyl-N-(2-(3-(4-ethoxyphenyl)-6-oxopyridazin-1(6H)-yl)ethyl)acetamide] cannot be ordered by IC50: over 100 µM for the first, over 100 µM for the second.

Compared with `COc1ccc(-c2ccc(=O)n(CC3CCCCC3)n2)cc1` [Compound 14, 2-(cyclohexylmethyl)-6-(4-methoxyphenyl)pyridazin-3(2H)-one], `CCOc1ccc(-c2ccc(=O)n(CCNC(=O)C3CCCC3)n2)cc1` [Compound 28, N-(2-(3-(4-ethoxyphenyl)-6-oxopyridazin-1(6H)-yl)ethyl)cyclopentanecarboxamide] is higher in IC50: at most 10 µM for the first, over 100 µM for the second. The first is the more potent here.

`CC1CC1CCn1nc(-c2cnc(OCC(F)(F)F)nc2)ccc1=O` (stereo not shown) [Compound 3, 2-(2-(2-methylcyclopropyl)ethyl)-6-(2-(2,2,2-trifluoroethoxy)pyrimidin-5-yl)pyridazin-3(2H)-one] and `O=c1ccc(-c2cnc(OCC(F)(F)F)nc2)nn1CCC1CCC1` [Compound 1, 2-(2-cyclobutylethyl)-6-(2-(2,2,2-trifluoroethoxy)pyrimidin-5-yl)pyridazin-3(2H)-one] cannot be ordered by IC50: at most 10 µM for the first, at most 10 µM for the second.

`CC(=O)NCCn1nc(-c2ccc(OC(F)F)cc2)ccc1=O` [Compound 29, N-(2-(3-(4-(difluoromethoxy)phenyl)-6-oxopyridazin-1(6H)-yl)ethyl)acetamide] and `COc1ccc(-c2ccc(=O)n(CCNC(=O)Nc3cccs3)n2)cc1` [Compound 37, 1-(2-(3-(4-methoxyphenyl)-6-oxopyridazin-1(6H)-yl)ethyl)-3-(thiophen-2-yl)urea] cannot be ordered by IC50: over 100 µM for the first, over 100 µM for the second.

First: CC1(Cn2nc(-c3cnc(OCC(F)(F)F)nc3)ccc2=O)COC1 [Compound 32, 2-((3-methyloxetan-3-yl)methyl)-6-(2-(2,2,2-trifluoroethoxy)pyrimidin-5-yl)pyridazin-3(2H)-one]
Second: CCCn1nc(-c2cnc(OCC(F)(F)F)nc2)ccc1=O [Compound 8, 2-propyl-6-(2-(2,2,2-trifluoroethoxy)pyrimidin-5-yl)pyridazin-3(2H)-one]
The IC50 of the first is higher: over 100 µM for the first, at most 10 µM for the second. The second is the more potent here.

`CC1(Cn2nc(-c3ccc(OC(F)F)nc3)ccc2=O)COC1` [Compound 31, 6-(6-(difluoromethoxy)pyridin-3-yl)-2-((3-methyloxetan-3-yl)methyl)pyridazin-3(2H)-one] and `O=c1ccc(-c2ccc(OC(F)F)nc2)nn1CCO` [Compound 34, 6-(6-(difluoromethoxy)pyridin-3-yl)-2-(2-hydroxyethyl)pyridazin-3(2H)-one] cannot be ordered by IC50: over 100 µM for the first, over 100 µM for the second.

`CCNC(Cn1nc(-c2ccc(OC(F)F)nc2)ccc1=O)C(F)(F)F` (stereo not shown) [Compound 33, 6-(6-(difluoromethoxy)pyridin-3-yl)-2-(2-(ethylamino)-3,3,3-trifluoropropyl)pyridazin-3(2H)-one] and `CS(=O)(=O)NCCn1nc(-c2ccc(OC(F)F)nc2)ccc1=O` [Compound 30, N-(2-(3-(6-(difluoromethoxy)pyridin-3-yl)-6-oxopyridazin-1(6H)-yl)ethyl)methanesulfonamide] cannot be ordered by IC50: over 100 µM for the first, over 100 µM for the second.

`COc1ccc(-c2ccc(=O)n(CCc3ccccc3)n2)cc1` [Compound 16, 6-(4-methoxyphenyl)-2-phenethylpyridazin-3(2H)-one] and `CSc1ccc(-c2ccc(=O)n(C/C=C/c3ccccc3)n2)cc1` [Compound 20, 2-cinnamyl-6-(4-(methylthio)phenyl)pyridazin-3(2H)-one] cannot be ordered by IC50: at most 10 µM for the first, at most 10 µM for the second.

`CC(C)(C)CCn1nc(-c2cnc(OCC(F)(F)F)nc2)ccc1=O` [Compound 17, 2-(3,3-dimethylbutyl)-6-(2-(2,2,2-trifluoroethoxy)pyrimidin-5-yl)pyridazin-3(2H)-one] and `N#CCn1nc(-c2cnc(OCC(F)(F)F)nc2)ccc1=O` [Compound 25, 2-(6-oxo-3-(2-(2,2,2-trifluoroethoxy)pyrimidin-5-yl)pyridazin-1(6H)-yl)acetonitrile] fall in the same range of IC50: 10 to 100 µM for the first, 10 to 100 µM for the second.

`O=c1ccc(-c2ccc3c(c2)OCCCO3)nn1CCOc1ccc(F)cc1` [Compound 22, 6-(3,4-dihydro-2H-benzo[b][1,4]dioxepin-7-yl)-2-(2-(4-fluorophenoxy)ethyl)pyridazin-3(2H)-one] and `CC(C)OCCn1nc(-c2ccc3c(c2)OCCCO3)ccc1=O` [Compound 26, 6-(3,4-dihydro-2H-benzo[b][1,4]dioxepin-7-yl)-2-(2-isopropoxyethyl)pyridazin-3(2H)-one] fall in the same range of IC50: 10 to 100 µM for the first, 10 to 100 µM for the second.

`O=c1ccc(-c2cnc(OCC(F)(F)F)nc2)nn1CCc1cncc(F)c1` [Compound 9, 2-(2-(5-fluoropyridin-3-yl)ethyl)-6-(2-(2,2,2-trifluoroethoxy)pyrimidin-5-yl)pyridazin-3(2H)-one] and `O=c1ccc(-c2cnc(OCC(F)(F)F)nc2)nn1CCc1ccc(Cl)cc1` [Compound 6, 2-(4-chlorophenethyl)-6-(2-(2,2,2-trifluoroethoxy)pyrimidin-5-yl)pyridazin-3(2H)-one] cannot be ordered by IC50: at most 10 µM for the first, at most 10 µM for the second.

Work on `O=c1ccc(-c2cnc(OCC(F)(F)F)nc2)nn1CCc1ccccn1` [Compound 10, 2-(2-(pyridin-2-yl)ethyl)-6-(2-(2,2,2-trifluoroethoxy)pyrimidin-5-yl)pyridazin-3(2H)-one] yielded an IC50 of at most 10 µM.
